Results on 26 molecules are retold here after patent EP0235942B1, “Alkylenediamine derivatives” (NIPPON CHEMIPHAR CO., LTD., priority 1986, dated 1987).

The nature of data set [1]: Acute toxicity (LD50, i.v.). To be noted: in vivo, iv, read-out: Acute Toxicity (LD₅₀). The procedure:
(§1) (3) The neuromuscular sample which was fixed in the vessel and treated in the above manner was subsequently washed with the salt solution flowing in the vessel under circulation for 40 min. After such washing was complete, the glutamate response was measured on the wahsed neuromuscular sample. […] Accordingly, it was confirmed that the glutamate blocking action of the aninoalcohol derivative was not kept for sufficient period of time. […] The prolongation of the effect of glutamate response shown in using this alkylenediamine compound was also observed on the alkylenediamine derivatives tested in the (1) above, (4) Acute toxicity (LD₅₀, i.v.) was measured on the alkylenediamine drivatives of the invention and the known aminoalcohol derivative.

Data set [2] concerns Neuromuscular Junction of Crayfish. Description: Glutamate blocking effect on neuromuscular junction of crayfish (intracellular recording of the L-glutamate-induced potential). As to conditions: for inhibition at 20 µM / inhibition at 0.5 µM: 5 min; for inhibition at 20 µM: inhibition ratio of glutamate potential induced by L-glutamate (1 x 10⁻⁴M), pretreated with test solution (2 x 10⁻⁵ M) for 5 min; for inhibition at 0.5 µM: as Table 1, but concentration of the pretreatment liquid reduced to 5 x 10⁻⁷ M; for glutamate response after washing: treated sample washed with circulating salt solution for 40 min, then glutamate response measured. In kind it is cell-based. The procedure: (1) Evaluation of glutamate blocking effect was performed according to the methods of Ishida et al [J. Physiol., 298, 301-319(1980)], and Shinozaki et al[Comp. Biochem. Physiol, 70c, 49-58(1981)]. In more detail, the opener muscle of the first walking leg of the crayfish is employed for the examination described below. A neuromusculor sample is fixed in a vessel, and an aqueous salt solution for crayfish [composition: NaCℓ (195 mM), CaCℓ₂ (18mM), KCℓ (5.4 mM), Tris-maleate buffer (pH 7.5, 10 mM), and glucose (11 mM)] was circulated at a constant rate into the vessel. A glass microelectrode filled with 3M KCℓ solution was inserted into the middle portion of the muscle fibre and the change of potential induced by L-glutamate (1 x 10⁻⁴M) was measured intracellularly. The glutamate blocking effect of the compound to be tested was evaluated by determining an inhibition ratio of glutamate potential protreated by the test solution (2 x 10⁻⁵ M) for 5 min.
(2) The glutamate blocking effects of the compound of the present invention as described in Synthesis Example 3 (i.e. 1-[3-[4-methyl-1-(3-methylbutyl)penty]amino]propyl]piperidine) and the known 5-methyl-1-phenyl-2-(3-piperidinopropylamino)hexan-1-ol were evaluated in the same manner as above except that the concentration of the liquid for the pretreatment was reduced from 2 x 10⁻⁵ M to 5 x 10⁻⁷ M. The results are set forth in Table 2.
as §1

Data set [3] has as its system opener muscle of the first walking leg of the crayfish. To be noted: dose of 2 x 10⁻⁴M; glutamic acid (1x10⁻⁴M); cited from earlier work.

As a reminder, the inhibition is the percentage by which the read-out fell short of the control. Consider `CCCCCC(CCCCC)NCCCN1CCCCC1` [Synthesis Example 2, 1-[3-(1-Pentylhexylamino)propyl]piperidine], for which the LD50 in data set [1] was determined as 23.3 mg/kg. The inhibition at 20 µM in data set [2] amounted to 80%.
In the case of `CC(C)CCC(CCC(C)C)NCCCN1CCCCC1` [Synthesis Example 3, 1-[3-[4-Methyl-1-(3-methylbutyl)pentylamino]propyl]-piperidine], in data set [1], the LD50 was found to be 29.5 mg/kg. Moreover, in data set [2], the inhibition at 0.5 µM is 25%, the inhibition at 20 µM turned out to be 99% and the “glutamate response after washing” value is “almost no glutamate response”.
For the molecule `CC(C)CCC(Cc1ccccc1)NCCCN1CCCCC1` (stereo not drawn) [Synthesis Example 4, 1-[3-(1-Benzyl-4-methylpentylamino)propyl]piperidine], the inhibition at 20 µM in data set [2] was 99%.
Regarding `CC(C)CCC(CCC(C)C)NCCCN1CCCC1` [Synthesis Example 20, 1-[3-[4-methyl-1-(3-methylbutyl)pentylamino]propyl]pyrrolidine], in data set [2], the inhibition at 20 µM is 96%.
For the molecule `CCC(CC)C(CCC(C)C)NCCCN1CCCCC1` (stereo not drawn) [Synthesis Example 15, 1-[3-[1-(1-Ethylpropyl)-4-methylpentylamino]propyl]piperidine], the inhibition at 20 µM in data set [2] turned out to be 94%.
As for `CC(C)CCN(CCCN1CCCCC1)CCC(C)C` [Synthesis Example 26, 1-[3-[N,N-Bis-(3-methylbutyl)amino]propyl]piperidine], the LD50 in data set [1] worked out at 24.8 mg/kg. In addition, in data set [2], the inhibition at 20 µM stood at 91%.
`CCCCCCCN(CCCN1CCCCC1)CCC(C)C` [Synthesis Example 34, 1-[3-[N-heptyl-N-(3-methylbutyl)amino]propyl]piperidine]: the inhibition at 20 µM in data set [2] amounted to 91%.
On the same count and under the same terms, under `CC(C)CCC(CCC(C)(C)C)NCCCN1CCCCC1` (stereo not drawn) [Synthesis Example 19, 1-[3-[4,4-Dimethyl-1-(3-methylbutyl]pentylamino]propyl]piperidine] stands 88%; under `CC(C)CCN(CCCN1CCCCC1)CCc1ccccc1` [Synthesis Example 29, 1-[3-[3-Methyl-N-(2-phenylethyl)butylamino]propyl]piperidine], 80%.
As for `CC(C)CCC(CCNCCCN1CCCCC1)Cc1ccccc1` (stereo not drawn) [Synthesis Example 11, 1-[3-(3-Benzyl-6-methylheptylamino)propyl]piperidine], the inhibition at 20 µM in data set [2] came to 96%.
Regarding `CC(C)CCN(CCCN1CCCCC1)CCOc1ccccc1` [Synthesis Example 28, 1-[3-[3-Methyl-N-(2-phenoxyethyl)butylamino]propyl]piperidine], the inhibition at 20 µM in data set [2] is 72%.
Still for that read-out and setting: under `CC(C)CCC(CNCCCN1CCCCC1)c1ccccc1` (stereo not drawn) [Synthesis Example 1, 1-[3-(5-Methyl-2-phenylhexylamino)propyl]piperidine] stands 99%; under `CCCCCC(CCC(C)C)NCCCN1CCCCC1` (stereo not drawn) [Synthesis Example 18, 1-[3-[1-(3-Methylbutyl)hexylamino]propyl]piperidine], 97%.
Regarding `COc1ccc([C@@H]2Sc3ccccc3N(CCN(C)C)C(=O)[C@@H]2OC(C)=O)cc1` [Diltiazem], in data set [3], the “inhibition of depolarization induced by glutamic acid” value was “approx. 30%”.
As for `CC(C)CCCCN(CCCCN1CCCCC1)CCC(C)C` [Synthesis Example 38, 1-[4-[N-(3-Methylbutyl)-N-(5-methylhexyl)amino]butyl]piperidine], in data set [2], the inhibition at 20 µM is 96%.
`CC(C)CCC(CCc1ccccc1)NCCCN1CCCCC1` (stereo not drawn) [Synthesis Example 10, 1-[3-[4-Methyl-1-(2-phenylethyl)pentylamino]propyl]piperidine]: in data set [2], the inhibition at 20 µM was determined as 99%.
On the same count and under the same terms, under `c1ccc(OC(CNCCCN2CCCCC2)c2ccccc2)cc1` (stereo not drawn) [Synthesis Example 8, 1-[3-(2-Phenoxy-2-phenylethylamino)propyl]piperidine] stands 94%.
Consider `CC(C)CC(=O)OCC(Cc1ccccc1)NCCCN1CCCCC1` (stereo not drawn) [Synthesis Example 9, 3-Phenyl-2-(3-piperidinopropylamino)propyl 3-methylbutanoate], for which the inhibition at 20 µM in data set [2] came out at 90%.
On the same count and under the same terms, the same measure for `CC(C)CCCCN(CCCN1CCCCCC1)CCC(C)C` [Synthesis Example 41, 1-[3-[N-(3-Methylbutyl)-N-(5-methylhexyl)amino]propyl]perhydroazepin]: 100%; for `CC(C)CCC(CCCc1ccccc1)NCCCN1CCCCC1` (stereo not drawn) [Synthesis Example 13, 1-[3-[4-Methyl-1-(3-phenylpropyl)pentylamino]propyl]piperidine]: 96%.
On the same count and under the same terms, under `CC(C)CCOC(CNCCCN1CCCCC1)c1ccccc1` (stereo not drawn) [Synthesis Example 7] stands 96%.
Regarding Caroberine, the “inhibition of depolarization induced by glutamic acid” value in data set [3] is reported as “approx. 30%”.
On to `CC(C)CCN(CCCc1ccccc1)CCCN1CCCCC1` [Synthesis Example 30, 1-[3-[3-Methyl-N-(3-phenylpropyl)butylamino]propyl]piperidine], for which the inhibition at 20 µM in data set [2] stood at 96%.
As to `CC(C)CCC(NCCCN1CCCCC1)C(O)c1ccccc1` (stereo not drawn) [5-Methyl-1-phenyl-2-(3-piperidinopropylamino)hexan-1-ol, reference compound], in data set [1], the LD50 stood at 13.6 mg/kg. Further, in data set [2], the inhibition at 0.5 µM amounted to 6% and the “glutamate response after washing” value is reported as “almost the same level as shown by the sample prior to the treatment”.
Turning to `CCCCCCN(CCCN1CCCCC1)CCC(C)C` [Synthesis Example 33, 1-[3-[N-hexyl-N-(3-methylbutyl)amino]propyl]piperidine], the inhibition at 20 µM in data set [2] was 83%.
As to `CC(C)CCC(CNCCCN1CCCCC1)Cc1ccccc1` (stereo not drawn) [Synthesis Example 12, 1-[3-(2-Benzyl-5-methylhexylamino)propyl]piperidino], in data set [2], the inhibition at 20 µM amounted to 98%.
